In US20110071108A1, “Beta-Cyclodextrin Derivatives as Antibacterial Agents” (Pinnacle Pharmaceuticals, Inc., priority 2005, published 2011):

How the values were obtained:
Assay in all cases: Bacterial panel testing, MIC by broth microdilution
Assay type in all cases: cell-based
Settings in all cases: 20-24 hours growth
[1] = test system: Eschericia coli
Procedure, shortened: (§1)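 Strains grown 2-4 h at 37 °C in Mueller-Hinton or Brain Heart infusion broth, standardized to McFarland density and diluted. Compound (10 μg/ml in DMSO) serially two-fold diluted across plate in inoculated media; rifampicin control. Growth 20-24 h, clear wells scored for MIC.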

[2] = test system: Salmonella choleraesuis
Procedure, shortened: as §1

[3] = test system: Pseudomonas aeruginosa
Procedure, shortened: as §1

[4] = test system: Staphylococcus aureus
Procedure, shortened: as §1

[5] = test system: Enterococcus faecium
Procedure, shortened: as §1

[6] = test system: Bacillus atrophaeus
Procedure, shortened: as §1

Cl.Cl.Cl.Cl.Cl.Cl.Cl.N[C@@H](CC(=O)OCc1ccccc1)C(=O)NC[C@H]1O[C@@H]2O[C@H]3[C@H](O)[C@@H](O)[C@@H](O[C@H]4[C@H](O)[C@@H](O)[C@@H](O[C@H]5[C@H](O)[C@@H](O)[C@@H](O[C@H]6[C@H](O)[C@@H](O)[C@@H](O[C@H]7[C@H](O)[C@@H](O)[C@@H](O[C@H]8[C@H](O)[C@@H](O)[C@@H](O[C@H]1[C@H](O)[C@H]2O)O[C@@H]8CNC(=O)[C@@H](N)CC(=O)OCc1ccccc1)O[C@@H]7CNC(=O)[C@@H](N)CC(=O)OCc1ccccc1)O[C@@H]6CNC(=O)[C@@H](N)CC(=O)OCc1ccccc1)O[C@@H]5CNC(=O)[C@@H](N)CC(=O)OCc1ccccc1)O[C@@H]4CNC(=O)[C@@H](N)CC(=O)OCc1ccccc1)O[C@@H]3CNC(=O)[C@@H](N)CC(=O)OCc1ccccc1
>200 µg/mL: MIC EC [1] | MIC SC [2] | MIC PA [3] | MIC SA [4] | MIC EF [5]

Cl.Cl.Cl.Cl.Cl.Cl.Cl.NCCCCCSC[C@H]1O[C@@H]2O[C@H]3[C@H](O)[C@@H](O)[C@@H](O[C@H]4[C@H](O)[C@@H](O)[C@@H](O[C@H]5[C@H](O)[C@@H](O)[C@@H](O[C@H]6[C@H](O)[C@@H](O)[C@@H](O[C@H]7[C@H](O)[C@@H](O)[C@@H](O[C@H]8[C@H](O)[C@@H](O)[C@@H](O[C@H]1[C@H](O)[C@H]2O)O[C@@H]8CSCCCCCN)O[C@@H]7CSCCCCCN)O[C@@H]6CSCCCCCN)O[C@@H]5CSCCCCCN)O[C@@H]4CSCCCCCN)O[C@@H]3CSCCCCCN
>200 µg/mL: MIC EC [1] | MIC SC [2] | MIC PA [3] | MIC SA [4] | MIC EF [5]

Cl.Cl.Cl.Cl.Cl.Cl.Cl.N[C@@H](Cc1ccc(O)cc1)C(=O)NC[C@H]1O[C@@H]2O[C@H]3[C@H](O)[C@@H](O)[C@@H](O[C@H]4[C@H](O)[C@@H](O)[C@@H](O[C@H]5[C@H](O)[C@@H](O)[C@@H](O[C@H]6[C@H](O)[C@@H](O)[C@@H](O[C@H]7[C@H](O)[C@@H](O)[C@@H](O[C@H]8[C@H](O)[C@@H](O)[C@@H](O[C@H]1[C@H](O)[C@H]2O)O[C@@H]8CNC(=O)[C@@H](N)Cc1ccc(O)cc1)O[C@@H]7CNC(=O)[C@@H](N)Cc1ccc(O)cc1)O[C@@H]6CNC(=O)[C@@H](N)Cc1ccc(O)cc1)O[C@@H]5CNC(=O)[C@@H](N)Cc1ccc(O)cc1)O[C@@H]4CNC(=O)[C@@H](N)Cc1ccc(O)cc1)O[C@@H]3CNC(=O)[C@@H](N)Cc1ccc(O)cc1
>200 µg/mL: MIC EC [1] | MIC SC [2] | MIC PA [3] | MIC SA [4] | MIC EF [5]

Cl.Cl.Cl.Cl.Cl.Cl.Cl.NC(CCC(=O)OCc1ccccc1)C(=O)NCC1OC2OC3C(CNC(=O)C(N)CCC(=O)OCc4ccccc4)OC(OC4C(CNC(=O)C(N)CCC(=O)OCc5ccccc5)OC(OC5C(CNC(=O)C(N)CCC(=O)OCc6ccccc6)OC(OC6C(CNC(=O)C(N)CCC(=O)OCc7ccccc7)OC(OC7C(CNC(=O)C(N)CCC(=O)OCc8ccccc8)OC(OC8C(CNC(=O)C(N)CCC(=O)OCc9ccccc9)OC(OC1C(O)C2O)C(O)C8O)C(O)C7O)C(O)C6O)C(O)C5O)C(O)C4O)C(O)C3O (stereo not shown)
>200 µg/mL: MIC EC [1] | MIC SC [2] | MIC PA [3] | MIC SA [4] | MIC EF [5]

Cl.Cl.Cl.Cl.Cl.Cl.Cl.NC(CS)C(=O)NCC1OC2OC3C(CNC(=O)C(N)CS)OC(OC4C(CNC(=O)C(N)CS)OC(OC5C(CNC(=O)C(N)CS)OC(OC6C(CNC(=O)C(N)CS)OC(OC7C(CNC(=O)C(N)CS)OC(OC8C(CNC(=O)C(N)CS)OC(OC1C(O)C2O)C(O)C8O)C(O)C7O)C(O)C6O)C(O)C5O)C(O)C4O)C(O)C3O (stereo not shown)
>200 µg/mL: MIC EC [1] | MIC SC [2] | MIC PA [3] | MIC SA [4] | MIC EF [5]

CSCCC(N)C(=O)NCC1OC2OC3C(CNC(=O)C(N)CCSC)OC(OC4C(CNC(=O)C(N)CCSC)OC(OC5C(CNC(=O)C(N)CCSC)OC(OC6C(CNC(=O)C(N)CCSC)OC(OC7C(CNC(=O)C(N)CCSC)OC(OC8C(CNC(=O)C(N)CCSC)OC(OC1C(O)C2O)C(O)C8O)C(O)C7O)C(O)C6O)C(O)C5O)C(O)C4O)C(O)C3O.Cl.Cl.Cl.Cl.Cl.Cl.Cl (stereo not shown)
>200 µg/mL: MIC EC [1] | MIC SC [2] | MIC BA [6] | MIC PA [3] | MIC SA [4] | MIC EF [5]

O=C(Cn1ccnc1)NCC1OC2OC3C(CNC(=O)Cn4ccnc4)OC(OC4C(CNC(=O)Cn5ccnc5)OC(OC5C(CNC(=O)Cn6ccnc6)OC(OC6C(CNC(=O)Cn7ccnc7)OC(OC7C(CNC(=O)Cn8ccnc8)OC(OC8C(CNC(=O)Cn9ccnc9)OC(OC1C(O)C2O)C(O)C8O)C(O)C7O)C(O)C6O)C(O)C5O)C(O)C4O)C(O)C3O (stereo not shown)
>200 µg/mL: MIC EC [1] | MIC SC [2] | MIC BA [6] | MIC PA [3] | MIC SA [4] | MIC EF [5]

CN(C)CCNCC(=O)NCC1OC2OC3C(CNC(=O)CNCCN(C)C)OC(OC4C(CNC(=O)CNCCN(C)C)OC(OC5C(CNC(=O)CNCCN(C)C)OC(OC6C(CNC(=O)CNCCN(C)C)OC(OC7C(CNC(=O)CNCCN(C)C)OC(OC8C(CNC(=O)CNCCN(C)C)OC(OC1C(O)C2O)C(O)C8O)C(O)C7O)C(O)C6O)C(O)C5O)C(O)C4O)C(O)C3O.Cl.Cl.Cl.Cl.Cl.Cl.Cl (stereo not shown)
>200 µg/mL: MIC EC [1] | MIC SC [2] | MIC BA [6] | MIC SA [4] | MIC EF [5]

CCCCCCCCCCCCNCC1OC2OC3C(CNCCCCCCCCCCCC)OC(OC4C(CNCCCCCCCCCCCC)OC(OC5C(CNCCCCCCCCCCCC)OC(OC6C(CNCCCCCCCCCCCC)OC(OC7C(CNCCCCCCCCCCCC)OC(OC8C(CNCCCCCCCCCCCC)OC(OC1C(O)C2O)C(O)C8O)C(O)C7O)C(O)C6O)C(O)C5O)C(O)C4O)C(O)C3O (stereo not shown)
>200 µg/mL: MIC EC [1] | MIC SC [2] | MIC BA [6] | MIC PA [3] | MIC EF [5]

CCCCCCCCCCCCCCCCNCC1OC2OC3C(CNCCCCCCCCCCCCCCCC)OC(OC4C(CNCCCCCCCCCCCCCCCC)OC(OC5C(CNCCCCCCCCCCCCCCCC)OC(OC6C(CNCCCCCCCCCCCCCCCC)OC(OC7C(CNCCCCCCCCCCCCCCCC)OC(OC8C(CNCCCCCCCCCCCCCCCC)OC(OC1C(O)C2O)C(O)C8O)C(O)C7O)C(O)C6O)C(O)C5O)C(O)C4O)C(O)C3O (stereo not shown)
>200 µg/mL: MIC EC [1] | MIC SC [2] | MIC BA [6] | MIC PA [3] | MIC EF [5]
